The text below walks through data of article PMC12102023 (Saudi Pharmaceutical Journal : SPJ, 2025).

The structures appear in SMILES notation. Like-named read-outs stand apart in the source and are kept apart here.

One assay has as its target CDK12 (Homo sapiens, UniProt Q9NYV4). Description: CDK12 inhibition assay. It is filed as biochemical.
The subject of assay [1] is HeLa (cervical epithelioid carcinoma). Put plainly: MTT antiproliferation assay, HeLa. It is filed as cell-based, human. Background: Tetrazolium assays rely on reduction of a dye to a coloured formazan, in cell work by metabolically active cells.
In assay [2] the test system is HCT116 (colorectal carcinoma). Description: MTT antiproliferation assay, HCT116. It is filed as cell-based. The note with it: Homo sapiens, HCT-116, read-out: IC50 (µM) HCT- 116.
Assay [3] concerns MCF7 (mammary gland breast cancer). Description: MTT antiproliferation assay, MCF7. It is filed as cell-based. To be noted: Homo sapiens, MCF7, read-out: IC50 (µM) MCF- 7.
For another assay, the target named is CDK9 (Homo sapiens, UniProt P50750). Description: biochemical.
CDK9, sequence (P50750 whole entry): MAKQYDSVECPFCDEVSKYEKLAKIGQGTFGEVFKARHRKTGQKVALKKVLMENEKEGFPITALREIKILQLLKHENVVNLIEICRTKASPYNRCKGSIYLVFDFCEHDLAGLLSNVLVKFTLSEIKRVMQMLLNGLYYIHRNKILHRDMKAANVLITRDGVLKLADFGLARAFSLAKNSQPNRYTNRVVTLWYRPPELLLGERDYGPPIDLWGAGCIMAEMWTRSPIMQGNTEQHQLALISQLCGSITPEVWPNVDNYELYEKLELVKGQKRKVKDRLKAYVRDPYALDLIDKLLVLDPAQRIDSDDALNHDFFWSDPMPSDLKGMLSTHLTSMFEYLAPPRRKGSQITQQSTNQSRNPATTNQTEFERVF
CDK9, sequence (O60563 whole entry partner): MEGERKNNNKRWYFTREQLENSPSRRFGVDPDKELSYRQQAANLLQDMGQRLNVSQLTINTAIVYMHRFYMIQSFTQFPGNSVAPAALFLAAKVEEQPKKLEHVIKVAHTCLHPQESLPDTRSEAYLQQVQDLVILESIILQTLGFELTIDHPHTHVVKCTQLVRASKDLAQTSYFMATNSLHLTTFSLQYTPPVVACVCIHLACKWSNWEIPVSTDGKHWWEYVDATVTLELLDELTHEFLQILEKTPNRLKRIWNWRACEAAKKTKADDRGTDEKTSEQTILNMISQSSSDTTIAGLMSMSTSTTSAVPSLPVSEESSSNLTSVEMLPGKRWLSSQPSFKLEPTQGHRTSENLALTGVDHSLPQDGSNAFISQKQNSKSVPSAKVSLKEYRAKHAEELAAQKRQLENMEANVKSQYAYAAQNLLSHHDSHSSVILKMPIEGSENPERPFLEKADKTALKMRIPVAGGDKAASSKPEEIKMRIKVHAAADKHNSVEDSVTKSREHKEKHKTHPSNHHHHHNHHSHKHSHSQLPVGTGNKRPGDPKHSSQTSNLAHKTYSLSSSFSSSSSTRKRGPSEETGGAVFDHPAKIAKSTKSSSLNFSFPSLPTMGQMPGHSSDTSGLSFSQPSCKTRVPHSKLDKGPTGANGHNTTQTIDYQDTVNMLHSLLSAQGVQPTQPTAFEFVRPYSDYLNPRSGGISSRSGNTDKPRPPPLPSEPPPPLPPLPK
Assay [4] has as its system WI- 38 (embryonic lung fibroblasts). Description: MTT assay, WI-38 fibroblasts. The note with it: Homo sapiens, WI-38, read-out: IC50 (µM) WI- 38. The assay is classed as cell-based.
In assay [5] the test system is HepG2 (hepatocellular carcinoma). Put plainly: MTT antiproliferation assay, HepG2. It is filed as cell-based, human.
Setting [6] is: Homo sapiens, HeLa, read-out: IC50 (µM) Hela, MTT assay, HeLa cells.
The mark [7] stands for this setting: Homo sapiens, HepG2, read-out: IC50 (µM) HePG- 2, MTT assay, HepG2 cells.

CDK12, sequence (Q9NYV4 whole entry): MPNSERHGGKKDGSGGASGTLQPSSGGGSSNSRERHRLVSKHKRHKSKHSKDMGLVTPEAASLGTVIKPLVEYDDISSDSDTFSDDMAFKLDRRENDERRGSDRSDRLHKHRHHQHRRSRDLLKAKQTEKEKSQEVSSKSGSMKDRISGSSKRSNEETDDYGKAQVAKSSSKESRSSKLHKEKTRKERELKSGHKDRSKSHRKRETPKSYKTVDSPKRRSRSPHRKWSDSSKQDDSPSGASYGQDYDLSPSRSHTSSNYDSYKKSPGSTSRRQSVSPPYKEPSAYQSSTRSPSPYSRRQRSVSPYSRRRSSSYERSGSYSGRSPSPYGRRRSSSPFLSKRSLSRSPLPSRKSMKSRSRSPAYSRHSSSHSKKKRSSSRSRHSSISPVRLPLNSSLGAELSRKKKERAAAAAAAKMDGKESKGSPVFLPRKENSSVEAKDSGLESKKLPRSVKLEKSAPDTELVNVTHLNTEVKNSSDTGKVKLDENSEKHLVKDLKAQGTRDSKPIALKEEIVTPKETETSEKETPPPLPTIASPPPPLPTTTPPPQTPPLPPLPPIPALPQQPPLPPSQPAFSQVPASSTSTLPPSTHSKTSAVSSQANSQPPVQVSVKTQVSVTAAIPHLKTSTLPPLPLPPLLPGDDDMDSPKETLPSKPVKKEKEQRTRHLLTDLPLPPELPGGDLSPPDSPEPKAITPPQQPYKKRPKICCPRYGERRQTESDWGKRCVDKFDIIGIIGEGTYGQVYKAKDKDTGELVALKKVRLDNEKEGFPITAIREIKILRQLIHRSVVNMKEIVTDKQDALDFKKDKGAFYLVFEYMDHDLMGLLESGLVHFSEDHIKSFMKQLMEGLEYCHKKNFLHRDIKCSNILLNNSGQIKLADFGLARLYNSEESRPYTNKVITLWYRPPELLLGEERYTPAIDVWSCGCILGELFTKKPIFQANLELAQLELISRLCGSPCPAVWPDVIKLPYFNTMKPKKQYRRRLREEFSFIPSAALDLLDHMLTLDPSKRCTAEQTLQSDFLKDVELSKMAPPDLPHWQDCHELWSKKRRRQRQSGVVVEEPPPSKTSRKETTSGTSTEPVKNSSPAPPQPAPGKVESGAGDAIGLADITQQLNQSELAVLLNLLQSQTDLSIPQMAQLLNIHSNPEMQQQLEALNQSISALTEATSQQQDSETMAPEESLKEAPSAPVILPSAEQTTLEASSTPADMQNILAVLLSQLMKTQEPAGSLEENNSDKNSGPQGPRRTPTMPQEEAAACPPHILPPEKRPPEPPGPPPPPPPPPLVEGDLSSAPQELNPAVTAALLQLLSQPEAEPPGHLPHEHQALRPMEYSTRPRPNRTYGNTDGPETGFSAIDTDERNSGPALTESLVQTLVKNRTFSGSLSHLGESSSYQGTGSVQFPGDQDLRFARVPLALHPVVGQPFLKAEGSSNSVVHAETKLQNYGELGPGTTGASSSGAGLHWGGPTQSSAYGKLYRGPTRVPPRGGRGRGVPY
CDK12, sequence (O75909 whole entry partner): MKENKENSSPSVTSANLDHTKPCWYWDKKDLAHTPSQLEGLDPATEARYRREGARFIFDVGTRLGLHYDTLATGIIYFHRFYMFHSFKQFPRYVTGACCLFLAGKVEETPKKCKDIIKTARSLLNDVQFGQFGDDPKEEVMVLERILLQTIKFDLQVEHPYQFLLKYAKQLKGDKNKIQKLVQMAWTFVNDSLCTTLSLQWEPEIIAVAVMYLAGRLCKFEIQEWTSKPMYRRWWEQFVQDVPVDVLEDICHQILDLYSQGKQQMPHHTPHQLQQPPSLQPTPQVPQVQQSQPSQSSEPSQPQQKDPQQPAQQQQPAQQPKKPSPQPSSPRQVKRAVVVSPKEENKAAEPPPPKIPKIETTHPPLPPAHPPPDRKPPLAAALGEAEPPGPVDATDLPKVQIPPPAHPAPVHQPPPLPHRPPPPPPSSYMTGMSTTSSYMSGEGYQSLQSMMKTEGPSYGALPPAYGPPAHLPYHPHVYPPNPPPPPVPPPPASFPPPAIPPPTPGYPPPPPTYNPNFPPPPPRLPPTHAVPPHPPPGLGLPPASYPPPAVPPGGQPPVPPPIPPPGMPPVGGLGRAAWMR

On to `NS(=O)(=O)c1cccc(Nc2ncc(F)c(-n3c(C(F)(F)F)nc4ccccc43)n2)c1` [Compound 4j, 3-((5-fluoro-4-(2-(trifluoromethyl)− 1H-benzo[d]imidazol-1-yl)pyrimidin-2-yl)amino)benzenesulfonamide], for which the IC50 on CDK12 is 104 ± 4 nM; in assay [1] (setting [6]) it was 19.4 µM; in assay [1] (read-out: IC50 (µM) Hela, MTT assay, HeLa cells), 19.2 ± 1.5 µM; in assay [2], 16.8 ± 1.2 µM; in assay [3], 11.7 ± 0.9 µM; against CDK9, 55 ± 2 nM. Moreover, the results for the IC50 in assay [4] and in assay [5] (setting [7]) were over 50 µM and 8.54 ± 0.7 µM, respectively.
On to `Cc1cnc(Nc2cccc(S(N)(=O)=O)c2)nc1-n1c(C2CC2)nc2ccccc21` [Compound 4 s, 3-((4-(2-cyclopropyl-1H-benzo[d]imidazol-1-yl)− 5-methylpyrimidin-2-yl)amino)benzenesulfonamide], for which the IC50 was 189 ± 7 nM against CDK12; 47.2 ± 2.5 µM in assay [1] (setting [6]); over 50 µM in assay [2]; 45.7 ± 2.4 µM in assay [3]; 408 ± 18 nM against CDK9; 28 ± 2 µM in assay [4]. Also, in assay [5] (setting [7]), the IC50 was found to be 38.1 ± 2.3 µM.
Regarding `NS(=O)(=O)c1cccc(Nc2ncc(F)c(-n3cnc4ccccc43)n2)c1` [Compound 4b, 3-((4-(1H-benzo[d]imidazol-1-yl)− 5-fluoropyrimidin-2-yl)amino)benzenesulfonamide], the IC50 came out at 566 ± 22 nM against CDK12; 17 ± 1.3 µM in assay [1] (setting [6]); 24.7 ± 1.7 µM in assay [2]; 14.2 ± 1.2 µM in assay [3]; 1150 ± 50 nM on CDK9; 46.7 ± 2.6 µM in assay [4]. The IC50 in assay [5] (setting [7]) worked out at 22.3 ± 1.6 µM.
Regarding `Cc1nc2ccccc2n1-c1nc(Nc2cccc(S(N)(=O)=O)c2)ncc1F` [Compound 4f, 3-((5-fluoro-4-(2-methyl-1H-benzo[d]imidazol-1-yl)pyrimidin-2-yl)amino)benzenesulfonamide], the IC50 at CDK12 is 1140 ± 44 nM; in assay [1] (setting [6]), 23.6 ± 1.7 µM; in assay [2], 33.5 ± 2 µM; in assay [3], 21.7 ± 1.7 µM; at CDK9, 762 ± 33 nM; in assay [4], 41.2 ± 2.5 µM. Also, the IC50 in assay [5] (setting [7]) came out at 15.4 ± 1.2 µM.
With `Cc1cnc(Nc2cccc(S(N)(=O)=O)c2)nc1-n1c(C(C)C)nc2ccccc21` [Compound 4o, 3-((4-(2-isopropyl-1H-benzo[d]imidazol-1-yl)− 5-methylpyrimidin-2-yl)amino)benzenesulfonamide], the IC50 at CDK12 is 1880 ± 73 nM; in assay [1] (setting [6]) it was over 50 µM; in assay [2], over 50 µM; in assay [3], over 50 µM; at CDK9 it was 1050 ± 45 nM; in assay [4] it was over 50 µM. Besides, in assay [5] (setting [7]), the half-maximal inhibitory concentration (IC50) is over 50 µM.
Turning to `CC(C)c1nc2ccccc2n1-c1nc(Nc2cccc(S(N)(=O)=O)c2)ncc1F` [Compound 4n, 3-((5-fluoro-4-(2-isopropyl-1H-benzo[d]imidazol-1-yl)pyrimidin-2-yl)amino)benzenesulfonamide], the IC50 at CDK12 is 179 ± 7 nM; in assay [1] (setting [6]), 36.4 ± 2.1 µM; in assay [2], 43.3 ± 2.5 µM; in assay [3], 32.4 ± 2 µM; against CDK9, 392 ± 17 nM; in assay [4], 76.1 ± 3.9 µM. For the same molecule, the IC50 worked out at 19.8 µM in assay [5] (setting [7]) and 19.9 ± 1.4 µM in assay [5] (read-out: IC50 (µM) HePG- 2, MTT assay, HepG2 cells).

As usually defined, the IC50 is the concentration needed to halve the response being measured.
